According to patent publication US11964960B2 (Cornell University, priority 2018, dated 2024):

Experiments:
S1P2 = biological target: T1, S1P2 (Homo sapiens, UniProt O95136); test: GLISA RhoA activation - antagonist assay; format: cell-based; conditions: CHO-S1P2-FL cells; for inhibition at 1 µM: 1 μM compound; for IC50: 1 hour compound incubation, then for 5 min
T1 construct: Flag; expressed in transfected cells; host or cells: Chinese hamster ovary (CHO) cells, doxycycline-inducible (CHO-S1P2-FL / CHO-S1PR2 FL)
Description: GLISA RhoA Activation—Antagonist Assay
GLISA assays were performed using RhoA (BK124) activation kit purchased from Cytoskeleton Inc., Denver, CO Doxycycline-inducible Flag-tag S1P2 expressing Chinese hamster ovary (CHO) cells (CHO-S1P2-FL) were seeded in a 6-well plate, 1.5×10^5 cells per well. Cells were stimulated with […] of Doxycycline to induce S1P2 expression in serum free IMDM media with 0.1% BSA/PBS. Following day, cells were stimulated with the compounds described herein (1 nM-10 μM) or 1 μM JTE-013 for 1 hour at 37° C. Following compound incubation, cells were washed with PBS×3 and induced with 100 nM […] for 5 min. […] Protein concentration was examined using GLISA—Precision Red Advanced Protein assay reagent as described in assay manual. Lysates were immobilized on GTP-bound capture plate and GLISA assay was performed based on manufacture recommendations as reported previously.

S1PR2 = S1PR2 (Homo sapiens, UniProt O95136); test: FLIPR calcium activation - antagonist assay; format: cell-based; parameters: Flag; expressed in transfected cells; host or cells: Chinese hamster ovary (CHO) cells, doxycycline-inducible (CHO-S1P2-FL / CHO-S1PR2 FL); conditions: CHO-S1PR2 FL cells, 1 hour compound incubation
Description: FLIPR Calcium Activation—Antagonist Assay
An assay was performed using Fluo-4 NW Calcium activation kit (#F36206) purchased from Molecular Probes/Life Technologies, Grand Island, NY. Calcium assay was performed according to the manufacturer's instructions. Briefly, CHO-S1PR2 FL cells (5×10^4 cells (for 384 well plate) or 7.5×10^4 cells (for 96 well plate)) were seeded 24 hours prior to experiment in serum free IMDM media supplemented with 0.1% fatty acid free BSA/PBS (SFM). After starvation, cells were stimulated with the compounds described herein (1 nM-10 μM) for 1 hour in SFM at room temperature. Cells were then washed with PBS and prepared for Calcium induction assay as instructed in Fluo-4 NW Calcium activation kit protocol. For calcium induction, 100 nM […] or 1 μM ATP were added in ligand plate places in the Hamamatsu FDSS6000 drug screening system. Ligand was added in 15 seconds intervals for 15 min and signal ratio of […] was measured using the Hamamatsu FDSS6000 instrument.

T1 sequence (O95136 whole entry, species assumed): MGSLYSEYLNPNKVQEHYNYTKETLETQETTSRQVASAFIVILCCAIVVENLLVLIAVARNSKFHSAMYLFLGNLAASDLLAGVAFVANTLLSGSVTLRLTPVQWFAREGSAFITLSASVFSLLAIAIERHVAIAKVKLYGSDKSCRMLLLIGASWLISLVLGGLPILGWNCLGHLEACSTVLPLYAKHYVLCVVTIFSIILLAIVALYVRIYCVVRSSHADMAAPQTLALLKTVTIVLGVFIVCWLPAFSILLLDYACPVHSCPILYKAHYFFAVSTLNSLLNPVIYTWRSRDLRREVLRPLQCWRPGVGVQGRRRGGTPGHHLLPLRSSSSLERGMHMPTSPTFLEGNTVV
Sequence of S1PR2 (O95136 whole entry, species assumed): as above

inhibition at 1 µM (S1P2)	IC50 (S1PR2)	IC50 (S1P2)	SMILES
< 10%	9800 nM	–	C#Cc1ccc(=O)n(CC(=O)c2cnn(Cc3cccc(C(=O)O)c3)c2C)c1 [Example 36, 3-((4-(2-(5-Ethynyl-2-oxopyridin-1(2H)-yl)acetyl)-5-methyl-1H-pyrazol-1-yl)methyl)benzoic Acid]
63%	694 nM	–	COc1cc(Br)cn(CC(=O)c2cnn(Cc3ccccc3)c2C)c1=O [Example 41, 1-(2-(1-Benzyl-5-methyl-1H-pyrazol-4-yl)-2-oxoethyl)-5-bromo-3-methoxypyridin-2(1H)-one]
69%	364 nM	–	Cc1cc(Br)cn(CC(=O)c2cnn(Cc3ccccc3)c2C)c1=O [Example 39, 1-(2-(1-Benzyl-5-methyl-1H-pyrazol-4-yl)-2-oxoethyl)-5-bromo-3-methylpyridin-2(1H)-one]
79%	23 nM	69 nM	C#Cc1ccc(=O)n(CC(=O)c2cnn(Cc3ccccc3)c2C)c1 [Compound 29, 1-(2-(1-benzyl-5-methyl-1H-pyrazol-4-yl)-2-oxoethyl)-5-ethynylpyridin-2(1H)-one]
79%	150 nM	82 nM	C=Cc1ccc(=O)n(CC(=O)c2cnn(Cc3ccccc3)c2C)c1 [Compound 34, 1-(2-(1-benzyl-5-methyl-1H-pyrazol-4-yi)-2-oxoethyl)-5-vinylpyridin-2(1H)-one]
< 10%	8700 nM	–	Cc1c(C(=O)Cn2cc(Br)ccc2=O)cnn1Cc1cccc(C(=O)O)c1 [Compound 32, 3-((4-(2-(5-bromo-2-oxopyridin-1(2H)-yl)acetyl)-5-methyl-1H-pyrazol-1-yl)methyl)benzoic acid]
69%	386 nM	–	C#Cc1ccc(=O)n(CC(=O)c2cnn(Cc3cccnc3)c2C)c1 [Compound 35, 5-ethynyl-1-(2-(5-methyl-1-(pyridin-3-ylmethyl)-1H-pyrazol-4-yl)-2-oxoethyl)pyridin-2(1H)-one]
15%	4400 nM	–	Cc1c(C(=O)Cn2ccc(Br)cc2=O)cnn1Cc1ccccc1 [Example 37, 1-(2-(1-Benzyl-5-methyl-1H-pyrazol-4-yl)-2-oxoethyl)-4-bromopyridin-2(1H)-one]
17%	3600 nM	–	C#Cc1ccn(CC(=O)c2cnn(Cc3ccccc3)c2C)c(=O)c1 [Example 38]
69%	89 nM	134 nM	C#Cc1ccc(=O)n(CC(=O)c2cc(C)n(Cc3ccccc3)c2C)c1 [Compound 3, 1-(2-(1-benzyl-2,5-dimethyl-1H-pyrrol-3-yl)-2-oxoethyl)-5-ethynylpyridin-2(1H)-one]
14%	5600 nM	–	Cc1c(C(=O)Cn2cc(Br)ccc2=O)cnn1Cc1cccnc1 [Compound 33, 5-bromo-1-(2-(5-methyl-1-(pyridin-3-ylmethyl)-1H-pyrazol-4-yl)-2-oxoethyl)pyridin-2(1H)-one]
48%	–	–	Cc1nc(Cn2c(C)cc(C(=O)C(C)n3cc(Br)ccc3=O)c2C)no1 (stereo not shown) [Compound 5, 5-bromo-1-(1-(2,5-dimethyl-1-((5-methyl-1,2,4-oxadiazol-3-yl)methyl)-1H-pyrrol-3-yl)-1-oxopropan-2-yl)pyridin-2(1H)-one]
–	–	200 nM	Cc1c(C(=O)Cn2cc(Br)cnc2=O)cnn1Cc1ccccc1 [Example 56, 1-(2-(1-Benzyl-5-methyl-1H-pyrazol-4-yl)-2-oxoethyl)-5-bromopyrimidin-2(1H)-one]
42%	–	–	Cc1cc(C(=O)C(C)n2cc(Br)ccc2=O)c(C)n1Cc1cccc(C(F)F)c1 (stereo not shown) [Compound 21, 5-bromo-1-(1-(1-(3-(difluoromethyl)benzyl)-2,5-dimethyl-1H-pyrrol-3-yl)-1-oxopropan-2-yl)pyridin-2(1H)-one]
87%	58 nM	52 nM	Cc1cc(C(=O)Cn2cc(Br)ccc2=O)c(C)n1Cc1ccccc1 [Compound 1, 1-(2-(1-benzyl-2,5-dimethyl-1H-pyrrol-3-yl)-2-oxoethyl)-5-bromopyridin-2(1H)-one]
64%	567 nM	–	C#Cc1cc(C)c(=O)n(CC(=O)c2cnn(Cc3ccccc3)c2C)c1 [Example 42, 1-(2-(1-Benzyl-5-methyl-1H-pyrazol-4-yl)-2-oxoethyl)-5-ethynyl-3-methylpyridin-2(1H)-one]

inhibition at 1 µM (S1P2)	IC50 (S1PR2)	IC50 (S1P2)	SMILES
57%	–	1470 nM	Cc1cc(C(=O)Cn2cc(I)ccc2=O)c(C)n1Cc1ccccc1 [Compound 2, 1-(2-(1-benzyl-2,5-dimethyl-1H-pyrrol-3-yl)-2-oxoethyl)-5-iodopyridin-2(1H)-one]
< 10%	–	–	COC(=O)c1ccc(=O)n(CC(=O)c2cc(C)n(Cc3ccccc3)c2C)c1 [Example 90]
67%	395 nM	–	Cc1cc(=O)n(CC(=O)c2cnn(Cc3ccccc3)c2C)cc1Br [Example 40, 1-(2-(1-Benzyl-5-methyl-1H-pyrazol-4-yl)-2-oxoethyl)-5-bromo-4-methylpyridin-2(1H)-one]
–	–	130 nM	C=Cc1ccc(=O)n(C(C)C(=O)c2cnn(Cc3ccccc3)c2C)n1 (stereo not shown) [Example 76, 2-(1-(1-Benzyl-5-methyl-1H-pyrazol-4-yl)-1-oxopropan-2-yl)-6-vinylpyridazin-3(2H)-one]
92%	11 nM	4.9 nM	Cc1c(C(=O)Cn2cc(Br)ccc2=O)cnn1Cc1ccccc1 [Compound 27, 1-(2-(1-benzyl-5-methyl-1H-pyrazol-4-yl)-2-oxoethyl)-5-bromopyridin-2(1H)-one]
41%	–	–	Cc1cc(C(=O)C(C)n2cc(Br)ccc2=O)c(C)n1Cc1ccn(C)n1 (stereo not shown) [Compound 12, 5-bromo-1-(1-(2,5-dimethyl-1-((1-methyl-1H-pyrazol-3-yl)methyl)-1H-pyrrol-3-yl)-1-oxopropan-2-yl)pyridin-2(1H)-one]
–	–	82 nM	C=C(F)c1ccc(=O)n(CC(=O)c2cnn(Cc3ccccc3)c2C)c1 [Example 83]
63%	–	–	Cc1cc(C(=O)C(C)n2cc(Br)ccc2=O)c(C)n1Cc1ccccc1C#N (stereo not shown) [Compound 17, 2-((3-(2-(5-bromo-2-oxopyridin-1(2H)-yl)propanoyl)-2,5-dimethyl-1H-pyrrol-1-yl)methyl)benzonitrile]
69%	–	297 nM	Cc1cc(C(=O)C(C)n2cc(Br)ccc2=O)c(C)n1Cc1cccc(C(=O)O)c1 (stereo not shown) [Compound 23, 3-((3-(2-(5-bromo-2-oxopyridin-1(2H)-yl)propanoyl)-2,5-dimethyl-1H-pyrrol-1-yl)metnyl)benzoic add]
70%	297 nM	200 nM	C#Cc1ccc(=O)n(CC(=O)c2cnn(Cc3ccccc3)c2C)n1 [Example 43, 2-(2-(1-Benzyl-5-methyl-1H-pyrazol-4-yl)-2-oxoethyl)-6-ethynylpyridazin-3(2H)-one]
–	–	92 nM	C=Cc1ccc(=O)n(CC(=O)c2c(C)nn(Cc3ccccc3)c2C)c1 [Example 86, 1-(2-(1-Benzyl-3,5-dimethyl-1H-pyrazol-4-yl)-2-oxoethyl)-5-vinylpyridin-2(1H)-one]
10%	–	–	Cc1nnc(Cn2c(C)cc(C(=O)C(C)n3cc(Br)ccc3=O)c2C)o1 (stereo not shown) [Example 57, 5-Bromo-1-(1-(2,5-dimethyl-1-((5-methyl-1,3,4-oxadiazol-2-yl)methyl)-1H-pyrrol-3-yl)-1-oxopropan-2-yl)pyridin-2(1H)-one]
–	–	107 nM	C=Cc1ccc(=O)n(CC(=O)c2cnn(Cc3ccccc3)c2C(F)F)c1 [Example 87, 1-(2-(1-Benzyl-5-(difluoromethyl)-1H-pyrazol-4-yl)-2-oxoethyl)-5-vinylpyridin-2(1H)-one]
11%	–	–	Cc1cc(C(=O)C(C)n2cc(Br)ccc2=O)c(C)n1Cc1cccc(F)c1 (stereo not shown) [Example 62, 5-Bromo-1-(1-(1-(3-fluorobenzyl)-2,5-dimethyl-1H-pyrrol-3-yl)-1-oxopropan-2-yl)pyridin-2(1H)-one]
29%	–	–	Cc1noc(Cn2c(C)cc(C(=O)C(C)n3cc(Br)ccc3=O)c2C)n1 (stereo not shown) [Compound 6, 5-bromo-1-(1-(2,5-dimethyl-1-((3-methyl-1,2,4-oxadiazol-5-yl)methyl)-1H-pyrrol-3-yl)-1-oxopropan-2-yl)pyridin-2(1H)-one]
